Source: paper PMC9468151, “Identification of a binding site on soluble RANKL that can be targeted to inhibit soluble RANK-RANKL interactions and treat osteoporosis” (Nature Communications, 2022)
Several values for one entry are separate records, joined by “and”; a condition that tells them apart may be missing. Equal entries are not always repeated.

Experiments:
OVX rats [1] = assay: Serum biochemical markers determination; type: in vivo, rat; design: TG / ALT / AST / ALP / GLU / TC / Ca / TBA / TBIL / BUN / CREA: unit not given here
Description: After treating with S3-15 for 12 weeks, rat serum was harvested and analyzed routine blood biochemical markers, including calcium (Ca), phosphorus (P), total cholesterol (TC), triglyceride (TG), glucose (Glu), aspartate aminotransferase (AST), alanine aminotransferase (ALT), alkaline phosphatase (ALP), total bile acid (TBIL), total bilirubin (TBA), creatinine (CREA), urea nitrogen (BUN). Ca, P, AST, ALT, ALP, CREA, and BUN were purchased from Wako Pure Chemical, Japan; Glu,TC, TG, TBIL, and TBA were purchased from Kehua Bio-engineering Co.LTD, China. Routine blood biochemical markers were examined with a Hitachi chemistry automated analyzer (Hitachi 7020, Japan) according to manufacturer’s instruction.

NF-κB = assay: Reporter-gene assay for NF-κB; type: cell-based, mouse; design: NF-κB luciferase expression (fig. 6c): unit not given here; settings: for NF-κB luciferase expression (fig. 6c): sRANKL stimulated; for reporter signal (fig. S3h): three replicates
Experimental: In order to investigate the NF-κB and NFAT transcriptional inhibition activity of selective sRANKL inhibitor, luciferase reporter gene assays were used[57]. RAW 264.7 cells stably transfected with an NF-κB luciferase reporter gene (3κB-Luc-SV40) or NFAT luciferase reporter gene were seeded into 96-well plates at a density of 1.5 × 10^5 or 1.0 × 10^5 cell per well respectively for 24 h. Cells were pretreated with compounds for 1 h, and then stimulated with sRANKL (100 ng/mL), TNF-ɑ (20 ng/mL), […] (50 ng/mL) and LPS (500 ng/mL) for 6 h for NF-κB transcriptional or 24 h for NFAT transcriptional. After treatment both cells were lysed and measured luciferase activity using a Promega Luciferase Assay system (Promega Corporation) by a Varioskan flash Multimode Microplate Reader (Thermo Scientific).

[2] = test system: NF-κB, MAPK and PI3K-AKT signaling; assay: Western blotting of RANKL-RANK signaling in RAW264.7 cells; type: cell-based, mouse; settings: RAW264.7, 5 μM
Experimental: (§1) The mRNA expression level of S3-15 was measured by RT–qPCR as primary described. Total cellular RNA sample was prepared using RNAiso Plus, followed by reverse transcription with PrimeScript™ MixRT Master Mix reverse transcriptase kit. Then quantitative real-time PCR assays were performed with TB Green™ premix EX Taq™ II kit on an Applied Biosystems. […] signaling inhibiting effect was determined by western blotting. RAW264.7 cells were treated with 5 μM S3-15 with or without sRANKL (100 ng/mL) for 5, 10, 30 and 60 min after starved for 1 h. Then the cells were washed with cold PBS and lysed by RIPA Lysis Buffer. Cell lysates were then processed for Western Blotting analyses. Primary antibody binding was detected using rat secondary antibodies (1:5000) coupled with enhanced chemiluminescence (ECL) reagents (Thermo Scientific) and visualized on Tanon 5200. Primers used for qPCR and antibodies used for western blotting were seen supplementary materials for details.

[3] = test system: osteoclast markers (DC-stamp, Ctsk, MMP9, Tracp, Oscar, Calcr); assay: RT-qPCR of osteoclast marker genes in BMMs; type: cell-based, mouse
Experimental: as §1

OVX rats [4] = assay: Rat body weight and organ coefficients determination; type: in vivo; settings: for body weight (fig. S7d): in g (unit assumed)
Experimental: We dissected all rats after 12 weeks of treatment, then took the main organs like heart, liver, spleen, lung, kidney, and thymus. All the organs were removed the attached adipose and weighted with an electronic balance (Sartorius, Germany). Mice spleen and cervical lymph node were also taken and weighted. Organ index (mg/g) was calculated as the following formula: Organ coefficients=Organweight(mg)/Ratormousetotalweight(g)

OVX mice = assay: Histological examination of femur (TRAP staining); type: in vivo, mouse
Experimental: The mice left femur was fixed in paraformaldehyde for 72 h, demineralized using 10% Ethylenediamine tetra-acetic acid (EDTA-2Na) for 3 weeks, and then dehydrated with ethanol, clarified with xylene, and embedded with paraffin. Paraffin embedded tissue was sectioned on a rotary microtome. The sectioned tissues were stained with TRAP.

mature osteoclasts = assay: Osteoclasts apoptotic activity assay; type: cell-based, mouse
Experimental: Mature osteoclasts were generated according to “Primary cultures of BMMs and osteoclastogenesis assay”. Mature osteoclasts were treated with or without compounds for 24 h[53]. At the end of incubation, cells were fixed with 4% paraformaldehyde and applied TRAP-staining. Apoptosis and cell death was measured by in situ fluorescence staining with AnnexinV-FITC (Beyotime Biotechnology) and prodidium iodide or DAPI staining flowing by their instructions. TRAP-positive cells, Annexin V, PI, and DAPI were visualized by Leica fluorescence microscopic.

[5] = serum, OVX rats, individual animals
[6] = BMMs, 100 ng/mL sRANKL + S3-15, relative to vehicle
[7] = versus Vehicle, three replicates

SMILES: CC(=O)/C(=N\Nc1ccccc1C(=O)O)C(=O)Nc1ccccn1 [S3-15]
- organ toxicity / routine blood examination (OVX rats [1]; rats, 12 weeks treatment): no organ toxicity in vivo
- ALP (OVX rats [1]; [5]): 35 and 77 and 34 and 39 and 60 and 23 and 42 and 48 and 49
- ALT (OVX rats [1]; [5]): 29 and 34 and 37 and 33 and 38 and 25 and 28 and 32 and 39
- AST (OVX rats [1]; [5]): 82 and 90 and 88 and 109 and 96 and 114 and 85 and 87 and 95
- BUN (OVX rats [1]; [5]): 5.99 and 5.28 and 6.41 and 6.31 and 5.6 and 5.72 and 5.71 and 5.18 and 6
- CREA (OVX rats [1]; [5]): 58.7 and 57.9 and 57 and 66.1 and 49.8 and 56.6 and 56.8 and 65.7 and 60.7
- Ca (OVX rats [1]; [5]): 2.46 and 2.39 and 2.41 and 2.43 and 2.15 and 2.33 and 2.34
- GLU (OVX rats [1]; [5]): 10.2096 and 9.028 and 12.7431 and 8.981 and 13.9764 and 7.763 and 10.2611 and 9.122 and 11.2914
- TBA (OVX rats [1]; [5]): 26.48 and 20.71 and 36.69 and 15.65 and 15.57 and 21.76 and 21.4 and 18.86 and 18.33
- TBIL (OVX rats [1]; [5]): 1.84 and 1.07 and 1.06 and 1.28 and 0.95 and 0.98 and 0.77 and 0.97 and 0.78
- TC (OVX rats [1]; [5]): 2.99 and 2.55 and 2.35 and 2.13 and 2.5 and 2.24 and 2.36 and 2.45
- TG (OVX rats [1]; [5]): 1.05 and 0.75 and 0.49 and 0.31 and 0.47 and 0.65 and 0.46 and 0.64
- luciferase activity (fig. S3g, taken as NF-κB) (NF-κB; IL-1β stimulated + S3-15): 748200 and 847300 and 792000
- luciferase activity (fig. S3g, taken as NF-κB) (NF-κB; LPS stimulated + S3-15): 375600 and 397200 and 396100
- luciferase activity (fig. S3g, taken as NF-κB) (NF-κB; TNF-α stimulated + S3-15): 61380 and 70860 and 74440
- NF-κB luciferase expression (fig. 6c) (NF-κB; S3-15 conc. 0.08): 32.0377 and 29.8492 and 26.4557
- NF-κB luciferase expression (fig. 6c) (NF-κB; S3-15 conc. 0.28): 25.9787 and 28.8312 and 30.4836
- NF-κB luciferase expression (fig. 6c) (NF-κB; S3-15 conc. 0.92): 26.259 and 24.0852 and 28.8361
- NF-κB luciferase expression (fig. 6c) (NF-κB; S3-15 conc. 3.03): 25.0885 and 25.1918 and 25.4328
- NF-κB luciferase expression (fig. 6c) (NF-κB; S3-15 conc. 10): 23.5738 and 23.8492 and 23.6426
- NF-κB luciferase expression (fig. 6c) (NF-κB; S3-15 conc. 33): 17.4311 and 18.5918 and 15.8918
- reporter signal (fig. S3h) (NF-κB; stimulus IL-1β): 348400 and 323800 and 307900
- reporter signal (fig. S3h) (NF-κB; stimulus LPS): 720100 and 801600 and 826800
- reporter signal (fig. S3h) (NF-κB; stimulus TNF-α): 62390 and 81670 and 85200
- TNF-α, IL-β and LPS activated NF-κB (NF-κB; without RANKL): cannot affect
- MAPK signaling (phosphorylation of ERK, JNK, p38) [2]: abrogated MAPK signaling
- PI3K-AKT signaling (phosphorylation of PI3K, AKT) [2]: reduced PI3K-AKT signaling
- RANKL-induced NF-κB signaling (phosphorylation of IKKα, IκBα, p65) [2]: suppresses RANKL-induced NF-κB signaling
- osteoclastogenesis related gene expression without RANKL ([3]; BMMs without RANKL): cannot affect
- Calcr mRNA expression [3, 6]: 452.218 and 472.155 and 436.053
- Ctsk mRNA expression [3, 6]: 96.8459 and 61.7386 and 86.8018
- DC-Stemp mRNA expression [3, 6]: 112.451 and 102.455 and 155.105
- MMP9 mRNA expression [3, 6]: 167.711 and 113.637 and 211.945
- Oscar mRNA expression [3, 6]: 160.036 and 111.839 and 197.432
- Tracp mRNA expression [3, 6]: 180.942 and 181.792 and 170.309
- Calcr relative expression (fig. S3i) [3, 7]: 0.46 and 0.59 and 1.1
- Ctsk relative expression (fig. S3i) [3, 7]: 1.05 and 0.94 and 2.17
- DC-Stamp relative expression (fig. S3i) [3, 7]: 0.75 and 0.62 and 1.46
- MMP9 relative expression (fig. S3i) [3, 7]: 1.19 and 1.06 and 1.03
- Oscar relative expression (fig. S3i) [3, 7]: 0.54 and 0.76 and 2.12
- Tracp relative expression (fig. S3i) [3, 7]: 0.53 and 0.95 and 1.32
- organ coefficient, Heart (OVX rats [4]; individual animals): 2.652 and 2.903 and 2.602 and 2.757 and 2.485 and 2.813 and 2.658 and 2.708 and 2.583
- organ coefficient, Kidney (OVX rats [4]; individual animals): 4.969 and 4.261 and 5.124 and 5.036 and 4.8723 and 5.304 and 5.021 and 5.76 and 4.3689
- organ coefficient, Liver (OVX rats [4]; individual animals): 19.7988 and 22.7088 and 21.1699 and 21.9894 and 21.577 and 21.8338 and 22.6442 and 26.0414 and 24.0486
- organ coefficient, Lung (OVX rats [4]; individual animals): 3.321 and 3.475 and 4.3001 and 4.037 and 3.68 and 3.867 and 3.796 and 3.612 and 2.629
- organ coefficient, Spleen (OVX rats [4]; individual animals): 1.37 and 1.538 and 1.519 and 1.351 and 1.314 and 1.243 and 1.454 and 1.422 and 1.469
- organ coefficient, Thymus (OVX rats [4]; individual animals): 0.5247 and 0.4616 and 0.2402 and 1.041 and 0.7463 and 1.3304 and 0.3322 and 0.6497 and 0.411
- organ coefficient, Uterus (OVX rats [4]; individual animals): 0.5222 and 0.6316 and 3.058 and 1.43 and 0.2827 and 0.6792 and 0.9495 and 1.366 and 2.466
- body weight (fig. S7d) (OVX rats [4]; week 12, individual animals): 538.3 and 392.8 and 372.2 and 391.4 and 440.6 and 486.3 and 462.8 and 403.8 and 390.8
- body weight (fig. S7d) (OVX rats [4]; week 16, individual animals): 559.2 and 407.9 and 470.2 and 373.7 and 449.4 and 404.7 and 487.3 and 429.1 and 417.2
- body weight (fig. S7d) (OVX rats [4]; week 20, individual animals): 573.2 and 404.5 and 481.5 and 392.5 and 442.6 and 406.7 and 502.6 and 448.2 and 400
- body weight (fig. S7d) (OVX rats [4]; week 24, individual animals): 583.9 and 392.6 and 476.6 and 387.2 and 432.3 and 403.3 and 500.6 and 445.5 and 415.3
- numbers of osteoclast, histology (OVX mice): significantly decreased the numbers of osteoclast
- EC50 (mature osteoclasts; Mus musculus, Osteoclast, 24 h treatment, read-out: EC50, apoptosis of mature osteoclasts): 550 nM
- dead osteoclast quantification (fig. 6f) (mature osteoclasts; mature osteoclasts, vehicle 41, 55, 67): 227 and 290 and 265
